The target in experiment [1] is T1, His-p53 Y220C (94-294) protein (Homo sapiens, UniProt P04637, Y220C).
T1 construct: His-p53 Y220C (94-294) protein
Nature of the experiment: In vitro DNA binding assay (HTRF). The experiment is classed as biochemical. The settings on record: % activation normalized to 2 μM Ref-1a high control.

Another experiment has as its system NUGC4 (P53 WT). The experiment is described as follows: Cell viability assay (CellTiter-Glo, 6 days), NUGC4. The experiment is classed as cell-based. The settings on record: cell viability, 6 days, CellTiter-Glo, read-out: NUGC4 (P53 WT) IC50. In short, it runs like this:
(§1)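 After a 6-day compound exposure following overnight plating, ATP luminescence (CellTiter-Glo) gave percent viability relative to DMSO-treated cells and cell-free medium controls. IC50 = concentration at 50% viability, from 4-parameter logistic or Excel fit.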

In the next experiment the test system is NUGC3 (P53 Y220C). Nature of the experiment: Cell viability assay (CellTiter-Glo, 6 days), NUGC3. The class given is cell-based. The settings on record: cell viability, 6 days, CellTiter-Glo, read-out: NUGC3 (P53 Y220C) IC50. Put shortly: as §1
Experiment [2] deals with NUGC-3_P53_Luc single clonal cell line (p53 Y220C). The experiment is described as follows: Reporter gene assay (p53 RE luciferase). The settings on record: luciferase reporter, 6 hours, normalized to Ref-1a (10 μM) high control, read-out: p53(Y220C)_NUGC-3 EC50. The class given is cell-based. Put shortly:
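Luminescence normalised to DMSO-only (0%) and 10 μM Ref-1a (100%) wells gives % activity, fitted by 4-parameter logistic or Excel to yield EC50 at 50%. Reporter line: NUGC-3 with p53 response element-luc2P, compound-treated 6 h at 37 °C.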

Like-named read-outs stand apart in the source and are kept apart here. Where only a bound is given, the exact number is not on record here.

Regarding `CN1CC[C@@H](Nc2cccc3c(CC(F)(F)F)c(C#CCNc4ccc(P(C)(C)=O)c5c4OCC5)sc23)[C@@H](F)C1` [Example 187, (7-((3-(7-(((3S,4R)-3-fluoro-1-methylpiperidin-4-yl)amino)-3-(2,2,2-trifluoroethyl)benzo[b]thiophen-2-yl)prop-2-yn-1-yl)amino)-2,3-dihydrobenzofuran-4-yl)dimethylphosphine oxide], the half-maximal effective concentration (EC50) in experiment [1] was 33 nM; in experiment [2] (Homo sapiens, NUGC-3), 50 nM. In addition, the IC50 in the experiment with NUGC4 (P53 WT) (Homo sapiens, NUGC-4, 144 h) came out at 5.32 µM; in the experiment with NUGC3 (P53 Y220C) (Homo sapiens, NUGC-3, 144 h), 290 nM.
In the case of `COc1cc(P(C)(C)=O)ccc1NCC#Cc1sc2c(N[C@@H]3CCN(C)C[C@@H]3C)cccc2c1CC(F)(F)F` [Example 126, (4-((3-(7-(((3S,4R)-1,3-dimethylpiperidin-4-yl)amino)-3-(2,2,2-trifluoroethyl)benzo[b]thiophen-2-yl)prop-2-yn-1-yl)amino)-3-methoxyphenyl)dimethylphosphine oxide], the EC50 stood at 36 nM in experiment [1] and 80 nM in experiment [2] (Homo sapiens, NUGC-3, 6 h). The IC50 with NUGC4 (P53 WT) (Homo sapiens, NUGC-4, 144 h) was determined as 2.74 µM; in the experiment with NUGC3 (P53 Y220C) (Homo sapiens, NUGC-3, 144 h), 630 nM.
Taken in the same sequence, the figures for `CNC(=O)c1ccc(NCC#Cc2sc3c(N[C@@H]4CCN(C)C[C@@H]4F)cccc3c2CC(F)(F)F)c(OC)c1` [Example 113, 4-((3-(7-(((3S,4R)-3-fluoro-1-methylpiperidin-4-yl)amino)-3-(2,2,2-trifluoroethyl)benzo[b]thiophen-2-yl)prop-2-yn-1-yl)amino)-3-methoxy-N-methylbenzamide] were 44 nM, 70 nM, 6.1 µM and 930 nM.
In the case of `CN1CC[C@@H](Nc2cccc3c(CC(F)(F)F)c(C#CCNc4ccc(P(C)(C)=O)cc4C(N)=O)sc23)[C@@H](F)C1` [Example 199, 5-(dimethylphosphoryl)-2-((3-(7-(((3S,4R)-3-fluoro-1-methylpiperidin-4-yl)amino)-3-(2,2,2-trifluoroethyl)benzo[b]thiophen-2-yl)prop-2-yn-1-yl)amino)benzamide], the EC50 in experiment [1] was found to be 27 nM; in experiment [2] (Homo sapiens, NUGC-3), 60 nM. Also, the IC50 in the experiment with NUGC4 (P53 WT) (Homo sapiens, NUGC-4, 144 h) came out at 49 µM; in the experiment with NUGC3 (P53 Y220C) (Homo sapiens, NUGC-3, 144 h) it was 360 nM.
Taken in the same sequence, the figures for `COc1cc(P(C)(C)=O)ccc1NCC#Cc1sc2c(N[C@@H]3CCN(C4CC5CCC(C4)O5)C[C@@H]3F)cccc2c1CC(F)(F)F` (stereo partly drawn) [Example 180, (4-((3-(7-(((3S,4R)-1-(8-oxabicyclo[3.2.1]octan-3-yl)-3-fluoropiperidin-4-yl)amino)-3-(2,2,2-trifluoroethyl)benzo[b]thiophen-2-yl)prop-2-yn-1-yl)amino)-3-methoxyphenyl)dimethylphosphine oxide] were 50 nM, 110 nM, 5.89 µM and 910 nM.
Taken in the same sequence, the figures for `COc1cc(P(C)(C)=O)ccc1NCC#Cc1sc2c(NC3CCN(C)CC3F)cccc2c1C(O)C(F)(F)F` (racemic) [Example 188, (4-((3-(7-((3-fluoro-1-methylpiperidin-4-yl)amino)-3-(2,2,2-trifluoro-1-hydroxyethyl)benzo[b]thiophen-2-yl)prop-2-yn-1-yl)amino)-3-methoxyphenyl)dimethylphosphine oxide(racemic)] were 18 nM, 60 nM, 40.6 µM and 1900 nM.
With `COc1cc(P(C)(C)=O)c(F)cc1NCC#Cc1sc2c(NC3CCN(C)CC3F)cccc2c1CC(F)(F)F` (stereo not shown) [Example 52, (2-fluoro-4-((3-(7-(((Z)-3-fluoro-1-methylpiperidin-4-yl)amino)-3-(2,2,2-trifluoroethyl)benzo[b]thiophen-2-yl)prop-2-yn-1-yl)amino)-5-methoxyphenyl)dimethylphosphine oxide], the EC50 in experiment [1] is 55 nM; in experiment [2], 230 nM. Besides, the IC50 is 4.58 µM with NUGC4 (P53 WT) and 750 nM in the experiment with NUGC3 (P53 Y220C).
For the molecule `CNC(=O)c1cc(NCC#Cc2sc3c(N[C@@H]4CCN(C5CCOCC5)C[C@@H]4F)cccc3c2CC(F)(F)F)c(OC)cc1P(C)(C)=O` [Example 160, 2-dimethylphosphoryl-5-[3-[7-[[(3S,4R)-3-fluoro-1-tetrahydropyran-4-yl-4-piperidyl]amino]-3-(2,2,2-trifluoroethyl)benzothiophen-2-yl]prop-2-ynylamino]-4-methoxy-N-methyl-benzamide], the EC50 was 41 nM in experiment [1] and 190 nM in experiment [2] (Homo sapiens, NUGC-3). Besides, the IC50 in the experiment with NUGC4 (P53 WT) (Homo sapiens, NUGC-4, 144 h) was > 50 µM; in the experiment on NUGC3 (P53 Y220C) (Homo sapiens, NUGC-3, 144 h), 1410 nM.
Taken in the same sequence, the figures for `COc1cc(S(C)(=O)=O)ccc1NCC#Cc1cc2c(N[C@@H]3CCN(C)C[C@@H]3F)cccc2n1CC(F)(F)F` [Ref-1a, N-((3S,4R)-3-fluoro-1-methylpiperidin-4-yl)-2-(3-((2-methoxy-4-(methylsulfonyl)phenyl)amino)prop-1-yn-1-yl)-1-(2,2,2-trifluoroethyl)-1H-indol-4-amine, reference compound] were 48 nM, 50 nM, 11 µM and 540 nM.
Turning to `COc1nc(P(C)(C)=O)ncc1NCC#Cc1sc2c(N[C@@H]3CCN(C)C[C@@H]3F)cccc2c1CC(F)(F)F` [Example 208, (5-((3-(7-(((3S,4R)-3-fluoro-1-methylpiperidin-4-yl)amino)-3-(2,2,2-trifluoroethyl)benzo[b]thiophen-2-yl)prop-2-yn-1-yl)amino)-4-methoxypyrimidin-2-yl)dimethylphosphine oxide], the EC50 in experiment [1] was 43 nM; in experiment [2] (Homo sapiens, NUGC-3) it was 710 nM. Further, the IC50 in the experiment on NUGC4 (P53 WT) (Homo sapiens, NUGC-4, 144 h) was found to be 13.7 µM; in the experiment with NUGC3 (P53 Y220C) (Homo sapiens, NUGC-3, 144 h), 2130 nM.
Taken in the same sequence, the figures for `COc1cc(P(C)(C)=O)ccc1NCC#Cc1sc2c(N[C@@H]3CCN(C4CCOC4)C[C@@H]3F)cccc2c1CC(F)(F)F` (stereo partly drawn) [Example 157, (4-((3-(7-(((3S,4R)-3-fluoro-1-(tetrahydrofuran-3-yl)piperidin-4-yl)amino)-3-(2,2,2-trifluoroethyl)benzo[b]thiophen-2-yl)prop-2-yn-1-yl)amino)-3-methoxyphenyl)dimethylphosphine oxide] were 68 nM, 110 nM, 4.84 µM and 530 nM.
`COc1cc(P(C)(C)=O)ccc1NCC#Cc1sc2c(N[C@H]3CCN(C4CCOCC4)C[C@H]3F)cccc2c1CC(F)(F)F` [Example 148, (4-((3-(7-(((3R,4S)-3-fluoro-1-(tetrahydro-2H-pyran-4-yl)piperidin-4-yl)amino)-3-(2,2,2-trifluoroethyl)benzo[b]thiophen-2-yl)prop-2-yn-1-yl)amino)-3-methoxyphenyl)dimethylphosphine oxide]: the EC50 was 147 nM in experiment [1] and 210 nM in experiment [2] (Homo sapiens, NUGC-3, 6 h). Also, the IC50 was determined as 3.08 µM in the experiment on NUGC4 (P53 WT) (Homo sapiens, NUGC-4, 144 h) and 1560 nM with NUGC3 (P53 Y220C) (Homo sapiens, NUGC-3, 144 h).
On to `COc1cc(P(=O)(C2CC2)C2CC2)ccc1NCC#Cc1sc2c(N[C@@H]3CCN(C)C[C@@H]3F)cccc2c1CC(F)(F)F` [Example 141, dicyclopropyl(4-((3-(7-(((3S,4R)-3-fluoro-1-methylpiperidin-4-yl)amino)-3-(2,2,2-trifluoroethyl)benzo[b]thiophen-2-yl)prop-2-yn-1-yl)amino)-3-methoxyphenyl)phosphine oxide], for which the EC50 in experiment [1] is 49 nM; in experiment [2] (Homo sapiens, NUGC-3, 6 h), 90 nM. Also, the IC50 in the experiment on NUGC4 (P53 WT) (Homo sapiens, NUGC-4, 144 h) amounted to 9.06 µM; with NUGC3 (P53 Y220C) (Homo sapiens, NUGC-3, 144 h), 1130 nM.
Take `COc1cc(P(C)(C)=O)ccc1NCC#Cc1sc2c(N[C@@H]3CCN(C)C[C@@H]3Cl)cccc2c1CC(F)(F)F` [Example 158, (3S,4R)-3-chloro-N-[2-[3-(4-dimethylphosphoryl-2-methoxy-anilino)prop-1-ynyl]-3-(2,2,2-trifluoroethyl)benzothiophen-7-yl]-1-methyl-piperidin-4-amine]: the half-maximal effective concentration (EC50) in experiment [1] was determined as 30 nM; in experiment [2] (Homo sapiens, NUGC-3, 6 h) it was 90 nM. The IC50 was 3.95 µM in the experiment on NUGC4 (P53 WT) (Homo sapiens, NUGC-4, 144 h) and 370 nM in the experiment with NUGC3 (P53 Y220C) (Homo sapiens, NUGC-3, 144 h).
With `COc1cc([S@@](C)(=N)=O)ccc1NCC#Cc1sc2c(N[C@@H]3CCN(C)C[C@@H]3F)cccc2c1CC(F)(F)F` [Example 226, (S)-(4-((3-(7-(((3S,4R)-3-fluoro-1-methylpiperidin-4-yl)amino)-3-(2,2,2-trifluoroethyl)benzo[b]thiophen-2-yl)prop-2-yn-1-yl)amino)-3-methoxyphenyl)(imino)(methyl)-16-sulfanone], the EC50 in experiment [1] was 39 nM; in experiment [2] it was 50 nM. Moreover, the figures for the half-maximal inhibitory concentration (IC50) in the experiment on NUGC4 (P53 WT) and with NUGC3 (P53 Y220C) were 19.4 µM and 320 nM, respectively.
In the case of `COc1cc(P(C)(C)=O)ccc1NCC#Cc1sc2c(N[C@H]3CCN(C)C[C@H]3C)cccc2c1CC(F)(F)F` [Example 125, (4-((3-(7-(((3R,4S)-1,3-dimethylpiperidin-4-yl)amino)-3-(2,2,2-trifluoroethyl)benzo[b]thiophen-2-yl)prop-2-yn-1-yl)amino)-3-methoxyphenyl)dimethylphosphine oxide], the EC50 in experiment [1] came to 54 nM; in experiment [2] (Homo sapiens, NUGC-3, 6 h), 180 nM. In addition, the IC50 with NUGC4 (P53 WT) (Homo sapiens, NUGC-4, 144 h) was found to be 2.57 µM; in the experiment with NUGC3 (P53 Y220C) (Homo sapiens, NUGC-3, 144 h), 1270 nM.

The record behind these values is US20240400591A1 (Jacobio Pharmaceuticals Co., Ltd., priority 2021, published 2024).
